Results from ChEMBL document CHEMBL1201862, “PubChem BioAssay data set” (2004).
The source made the active and inactive calls.

Assays:
[1] = biological target: Bcl-2-like protein 10 (Homo sapiens, UniProt Q9HD36); assay: Bcl-B/TR3 peptide binding disruption – biochemical, fluorescence polarization, FITC-TR3 peptide, selectivity assay for Bfl-1 inhibitor project, primary screen (AID 748);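 further: fluorescence polarization from a fluorescein-labelled TR3 peptide binding purified Bcl-B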
[2] = biological target: T1, Estrogen receptor (Homo sapiens, UniProt P03372);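 further: potency for inhibiting coactivator peptide recruitment to the receptor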
T1 sequence (P03372 whole entry): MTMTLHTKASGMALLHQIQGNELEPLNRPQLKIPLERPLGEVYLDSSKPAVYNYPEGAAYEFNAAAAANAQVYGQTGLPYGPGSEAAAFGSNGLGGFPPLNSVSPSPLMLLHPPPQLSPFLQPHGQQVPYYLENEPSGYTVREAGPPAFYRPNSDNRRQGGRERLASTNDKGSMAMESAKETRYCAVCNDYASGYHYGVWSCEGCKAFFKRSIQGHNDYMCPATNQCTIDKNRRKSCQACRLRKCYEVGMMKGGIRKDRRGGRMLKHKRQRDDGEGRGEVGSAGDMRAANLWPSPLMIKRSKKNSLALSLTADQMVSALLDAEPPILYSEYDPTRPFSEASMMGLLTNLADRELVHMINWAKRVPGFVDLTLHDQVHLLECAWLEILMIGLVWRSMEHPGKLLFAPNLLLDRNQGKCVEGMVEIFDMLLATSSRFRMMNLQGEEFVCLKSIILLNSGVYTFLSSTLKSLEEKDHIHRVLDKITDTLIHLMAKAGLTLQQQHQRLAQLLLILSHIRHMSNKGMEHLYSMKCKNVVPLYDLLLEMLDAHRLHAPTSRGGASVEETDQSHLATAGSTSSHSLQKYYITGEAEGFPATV

[3] = biological target: T2, Estrogen receptor beta (Homo sapiens, UniProt Q92731);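 further: recombinant ER-beta bound to coactivator SRC1 peptide in presence of estradiol agonist; inhibitors block coactivator peptide binding and lower the FRET signal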
T2 sequence (Q92731 whole entry): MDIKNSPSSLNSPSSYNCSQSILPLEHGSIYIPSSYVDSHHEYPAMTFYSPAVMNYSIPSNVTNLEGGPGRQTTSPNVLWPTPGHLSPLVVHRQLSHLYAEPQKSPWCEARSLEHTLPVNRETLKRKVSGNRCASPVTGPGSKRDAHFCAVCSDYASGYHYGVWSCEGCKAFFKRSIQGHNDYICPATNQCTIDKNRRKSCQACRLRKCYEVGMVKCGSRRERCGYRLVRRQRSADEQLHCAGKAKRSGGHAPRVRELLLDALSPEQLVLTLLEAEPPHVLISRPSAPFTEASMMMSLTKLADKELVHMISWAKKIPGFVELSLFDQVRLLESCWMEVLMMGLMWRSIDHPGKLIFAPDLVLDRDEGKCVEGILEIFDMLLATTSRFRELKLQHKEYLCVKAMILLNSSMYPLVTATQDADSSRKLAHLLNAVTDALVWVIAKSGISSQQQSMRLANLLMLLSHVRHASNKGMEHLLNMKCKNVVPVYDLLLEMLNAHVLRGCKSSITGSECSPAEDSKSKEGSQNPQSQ

[4] = biological target: T2, Estrogen receptor beta; assay: blockers of SRC-3 recruitment to ERβ – biochemical, ELISA, streptavidin-HRP readout, orthogonal assay, confirmation (AID 1060)
[5] = biological target: T3, Carboxy-terminal domain RNA polymerase II polypeptide A small phosphatase 1 (Homo sapiens, UniProt Q9GZU7); assay: CTDSP1 inhibitors, concentration-response, biochemical, absorbance readout, ultra-high-throughput screen actives (AID 540297); type: functional
T3 sequence (Q9GZU7 whole entry): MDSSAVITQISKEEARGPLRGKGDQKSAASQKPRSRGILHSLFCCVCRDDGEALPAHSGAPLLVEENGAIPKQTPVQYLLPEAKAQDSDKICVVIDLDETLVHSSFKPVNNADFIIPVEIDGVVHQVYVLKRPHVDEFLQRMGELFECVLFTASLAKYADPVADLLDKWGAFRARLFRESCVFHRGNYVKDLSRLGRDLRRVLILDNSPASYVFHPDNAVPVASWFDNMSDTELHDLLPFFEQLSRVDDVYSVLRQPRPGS

[6] = biological target: Galanin receptor type 2 (Homo sapiens, UniProt O43603); assay: Dose Response cell-based high-throughput screening assay to identify antagonists of galanin receptor 2 (GALR2). [Related pubchem assays: 828, 866 ]; type: functional
Chain of Galanin receptor type 2 (O43603 whole entry): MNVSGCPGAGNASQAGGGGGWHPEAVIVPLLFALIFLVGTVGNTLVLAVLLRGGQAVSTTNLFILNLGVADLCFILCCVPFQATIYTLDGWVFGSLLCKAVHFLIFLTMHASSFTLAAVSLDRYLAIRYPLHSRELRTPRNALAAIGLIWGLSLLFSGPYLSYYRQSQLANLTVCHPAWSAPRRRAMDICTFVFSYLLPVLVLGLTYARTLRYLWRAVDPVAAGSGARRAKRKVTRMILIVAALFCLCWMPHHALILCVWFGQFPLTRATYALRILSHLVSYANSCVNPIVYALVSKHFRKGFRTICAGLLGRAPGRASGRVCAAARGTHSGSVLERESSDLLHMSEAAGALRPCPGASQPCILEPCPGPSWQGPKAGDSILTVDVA

[7] = biological target: T4, Mannose-6-phosphate isomerase (Homo sapiens, UniProt P34949); assay: MPI enzyme activity inhibition – biochemical, fluorescence intensity, coupled assay, primary screen (AID 1209)
T4 sequence (P34949 whole entry): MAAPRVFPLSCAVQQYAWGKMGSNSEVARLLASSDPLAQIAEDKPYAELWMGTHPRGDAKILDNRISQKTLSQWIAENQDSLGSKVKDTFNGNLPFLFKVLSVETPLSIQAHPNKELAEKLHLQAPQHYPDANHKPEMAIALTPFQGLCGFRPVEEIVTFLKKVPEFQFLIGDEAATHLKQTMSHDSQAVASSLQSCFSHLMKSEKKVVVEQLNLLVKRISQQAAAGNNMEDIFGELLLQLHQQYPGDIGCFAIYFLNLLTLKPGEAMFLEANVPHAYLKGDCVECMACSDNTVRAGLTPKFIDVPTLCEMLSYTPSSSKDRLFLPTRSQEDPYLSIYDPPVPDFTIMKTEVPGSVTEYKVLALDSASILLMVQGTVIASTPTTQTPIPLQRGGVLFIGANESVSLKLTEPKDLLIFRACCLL

[8] = microbe, parasite or virus in culture; type: functional; conditions: Mycobacterium tuberculosis
[9] = biological target: T4, Mannose-6-phosphate isomerase; assay: MPI inhibition at elevated mannose 6-phosphate – biochemical, fluorescence intensity, high mannose 6-phosphate, primary screen (AID 1220)
[10] = biological target: C-C chemokine receptor type 6 (Homo sapiens, UniProt P51684); assay: antagonism of CCR6 beta-arrestin recruitment – cell-based, luminescent beta-arrestin readout, dose response (AID 504728); type: functional
Chain of C-C chemokine receptor type 6 (P51684 whole entry): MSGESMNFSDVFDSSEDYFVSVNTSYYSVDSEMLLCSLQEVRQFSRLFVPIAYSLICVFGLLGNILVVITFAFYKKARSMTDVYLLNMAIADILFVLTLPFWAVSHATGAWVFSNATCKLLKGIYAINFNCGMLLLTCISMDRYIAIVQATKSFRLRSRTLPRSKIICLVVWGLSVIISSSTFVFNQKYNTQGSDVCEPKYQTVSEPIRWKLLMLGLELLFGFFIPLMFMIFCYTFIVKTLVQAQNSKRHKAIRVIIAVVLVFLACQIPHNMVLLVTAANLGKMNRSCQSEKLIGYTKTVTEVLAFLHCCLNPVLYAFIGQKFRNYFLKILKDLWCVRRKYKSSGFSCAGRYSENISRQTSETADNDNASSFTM

[11] = biological target: Beta-galactosidase (Escherichia coli, UniProt Q8VNN2); assay: detection-enzyme interference by beta-gal modulators – biochemical, E. coli enzyme, set 3, artefact control for CCR6 antagonist project, dose response (AID 504712); type: functional
Chain of Beta-galactosidase (Q8VNN2 whole entry): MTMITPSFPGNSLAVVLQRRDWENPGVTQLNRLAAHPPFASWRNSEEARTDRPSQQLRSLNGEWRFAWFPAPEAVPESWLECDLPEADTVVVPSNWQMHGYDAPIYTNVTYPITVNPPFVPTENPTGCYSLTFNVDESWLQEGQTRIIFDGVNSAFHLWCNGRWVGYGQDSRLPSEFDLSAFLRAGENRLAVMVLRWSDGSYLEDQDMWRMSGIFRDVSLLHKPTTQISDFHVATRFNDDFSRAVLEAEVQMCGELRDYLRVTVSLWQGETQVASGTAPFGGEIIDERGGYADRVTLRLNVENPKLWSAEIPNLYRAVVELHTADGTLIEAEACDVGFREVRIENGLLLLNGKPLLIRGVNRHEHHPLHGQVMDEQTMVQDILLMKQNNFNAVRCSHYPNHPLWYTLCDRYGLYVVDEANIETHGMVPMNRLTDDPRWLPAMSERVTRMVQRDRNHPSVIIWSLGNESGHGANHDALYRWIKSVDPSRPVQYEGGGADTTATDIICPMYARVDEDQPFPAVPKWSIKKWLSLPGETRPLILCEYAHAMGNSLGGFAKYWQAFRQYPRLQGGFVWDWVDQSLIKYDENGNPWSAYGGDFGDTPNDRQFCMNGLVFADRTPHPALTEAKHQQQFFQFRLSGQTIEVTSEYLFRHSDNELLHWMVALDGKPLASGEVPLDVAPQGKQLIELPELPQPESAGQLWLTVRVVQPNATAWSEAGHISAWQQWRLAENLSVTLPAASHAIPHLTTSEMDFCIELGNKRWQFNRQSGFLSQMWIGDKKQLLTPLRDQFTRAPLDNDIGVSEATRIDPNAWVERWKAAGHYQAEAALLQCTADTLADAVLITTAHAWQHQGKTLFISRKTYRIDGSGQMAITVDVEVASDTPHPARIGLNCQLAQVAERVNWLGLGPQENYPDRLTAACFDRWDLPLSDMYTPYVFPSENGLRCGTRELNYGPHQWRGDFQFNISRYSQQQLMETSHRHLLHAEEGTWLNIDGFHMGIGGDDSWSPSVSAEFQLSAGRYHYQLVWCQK

[12] = biological target: T5, Heat shock factor protein 1 (Mus musculus, UniProt P38532); assay: enhancement of HSF1-driven luciferase signal – cell-based, NIH3T3, luminescence, dose retest, confirmation (AID 435004); type: functional;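 further: stress induced by proteasome inhibitor MG132 added 30 min after compound; luciferase reporter driven by HSF1 response element in NIH3T3 cells; actives raise luminescence as potentiators of the MG132 stress response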
T5 sequence (P38532 whole entry): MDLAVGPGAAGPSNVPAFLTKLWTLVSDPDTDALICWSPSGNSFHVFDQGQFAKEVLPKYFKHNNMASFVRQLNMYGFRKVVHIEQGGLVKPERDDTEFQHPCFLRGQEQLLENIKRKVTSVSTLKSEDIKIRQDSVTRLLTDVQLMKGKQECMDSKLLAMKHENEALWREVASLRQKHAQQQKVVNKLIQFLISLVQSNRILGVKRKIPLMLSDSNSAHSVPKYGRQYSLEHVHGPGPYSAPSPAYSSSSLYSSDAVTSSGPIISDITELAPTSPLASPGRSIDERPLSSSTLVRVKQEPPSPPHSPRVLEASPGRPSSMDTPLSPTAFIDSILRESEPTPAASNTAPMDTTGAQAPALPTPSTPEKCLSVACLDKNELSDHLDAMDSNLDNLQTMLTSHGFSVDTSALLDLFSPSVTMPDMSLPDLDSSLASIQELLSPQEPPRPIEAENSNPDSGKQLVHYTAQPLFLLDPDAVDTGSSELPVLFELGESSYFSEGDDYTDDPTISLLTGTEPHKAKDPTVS

[13] = biological target: Lysosomal acid glucosylceramidase (Homo sapiens, UniProt P04062); assay: Dose response cell-based high throughput screening assay to identify enhancers of beta-glucosidase activity. [Related pubchem assays: 784 ]; type: functional
Chain of Lysosomal acid glucosylceramidase (P04062 whole entry): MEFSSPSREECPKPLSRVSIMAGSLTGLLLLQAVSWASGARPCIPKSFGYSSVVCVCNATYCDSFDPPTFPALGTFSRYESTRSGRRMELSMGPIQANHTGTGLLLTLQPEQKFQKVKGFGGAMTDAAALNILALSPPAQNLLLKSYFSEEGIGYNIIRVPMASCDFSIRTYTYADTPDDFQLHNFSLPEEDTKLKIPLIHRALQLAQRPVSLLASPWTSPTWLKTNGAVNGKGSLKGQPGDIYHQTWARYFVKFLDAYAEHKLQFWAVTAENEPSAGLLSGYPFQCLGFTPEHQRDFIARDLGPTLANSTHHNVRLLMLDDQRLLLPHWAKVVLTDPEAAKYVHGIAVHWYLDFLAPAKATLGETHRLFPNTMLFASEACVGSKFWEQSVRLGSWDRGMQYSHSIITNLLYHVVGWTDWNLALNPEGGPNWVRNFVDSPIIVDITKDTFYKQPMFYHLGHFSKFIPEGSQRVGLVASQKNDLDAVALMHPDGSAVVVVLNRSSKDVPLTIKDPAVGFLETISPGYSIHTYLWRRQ

[14] = Cytotoxicity screening for potential Inhibitors of Bacterial Capsule Biogenesis. [Related pubchem assays (depositor defined):AID488970]; type: functional
[15] = biological target: T6, Luciferin 4-monooxygenase (Photinus pyralis, UniProt P08659); assay: Counter Screen for Luciferase-based Assay Positives. [Related pubchem assays: 620, 618, 411 ]
T6 sequence (P08659 whole entry): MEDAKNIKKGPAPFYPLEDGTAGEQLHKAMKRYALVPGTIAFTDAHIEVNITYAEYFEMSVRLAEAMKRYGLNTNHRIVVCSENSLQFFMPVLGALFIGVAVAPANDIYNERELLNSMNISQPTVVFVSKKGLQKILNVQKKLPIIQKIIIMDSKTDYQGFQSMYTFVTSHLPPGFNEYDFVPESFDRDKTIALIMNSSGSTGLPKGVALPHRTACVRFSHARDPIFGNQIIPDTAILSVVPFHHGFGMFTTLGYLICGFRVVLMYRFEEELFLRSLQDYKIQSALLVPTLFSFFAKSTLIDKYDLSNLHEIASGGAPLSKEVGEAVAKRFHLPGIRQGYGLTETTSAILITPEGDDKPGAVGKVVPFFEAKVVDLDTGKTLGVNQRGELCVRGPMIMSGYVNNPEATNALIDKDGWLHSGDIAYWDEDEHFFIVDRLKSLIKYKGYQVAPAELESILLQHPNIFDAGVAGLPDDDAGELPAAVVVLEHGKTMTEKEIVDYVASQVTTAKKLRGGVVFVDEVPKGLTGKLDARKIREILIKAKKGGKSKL

[16] = system: HEK293; assay: PMA/Ionomycin induced NF-kB luciferase assay in 293- NF-kB-Luc stable cells. [Related pubchem assays: 1299, 1270, 1295, 1375, 1287, 1281, 1293, 1291, 1289, 1280, 465, 1364, 1282, 1372, 1365, 1370, 1367, 1366, 1269, 1373, 1292, 1290, 1302, 1371, 1283, 1271, 1294, 1374, 1368, 1369 ]; type: functional, cell-based; conditions: Homo sapiens
[17] = biological target: T6, Luciferin 4-monooxygenase; assay: In vitro luciferase assay using purified luciferase. [Related pubchem assays: 1299, 1270, 1295, 1375, 1287, 1281, 1293, 1291, 1289, 1280, 465, 1364, 1282, 1372, 1365, 1370, 1367, 1366, 1266, 1373, 1292, 1290, 1302, 1371, 1283, 1271, 1294, 1374, 1368, 1369 ]
[18] = biological target: T5, Heat shock factor protein 1; assay: decrease of HSF1-responsive luciferase luminescence – cell-based, NIH3T3, dose retest, confirmation (AID 2382); type: functional;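 further: NIH3T3 fibroblasts with HSF1-driven luciferase reporter stressed by proteasome inhibitor MG132; luminescence from HSF1-driven luciferase expression after 8 hours of MG132 stress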
[19] = system: HT-1080; assay: HT1080 cell viability loss – fluorescence readout (AID 620); type: functional, cell-based; conditions: Homo sapiens
[20] = system: HEK293; assay: Cytotoxicity assay in HEK293 cells. [Related pubchem assays (depositor defined):AID1266, AID1269, AID1270, AID1271, AID1280, AID1281, AID1282, AID1283, AID1287, AID1289, AID1290, AID1291, AID1292, AID1293, AID1294, AID1295, AID1299, AID1302, AID1364, AID1365, AID1366, AID1367, AID1369, AID1370, AID1371, AID1372, AID1373, AID1374, AID1375, AID1384 …; type: functional, cell-based; conditions: Homo sapiens
[21] = system: Jurkat; assay: blockers of NF-kB activation in T cells – Jurkat, luciferase reporter, luminescence, B- and T-cell, dose response (AID 489004); type: functional, cell-based; conditions: Homo sapiens;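 further: NF-kB luciferase reporter Jurkat cells stimulated with PMA plus ionomycin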
[22] = HEK-293T viability loss, compound-treated – cell-based, uHTS hits, cytotoxicity control for B/T-cell NF-kB inhibitor project, dose response (AID 489019); type: functional;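 further: IC50 reflects cytotoxicity as loss of cell viability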
[23] = biological target: T7, Microphthalmia-associated transcription factor (Homo sapiens, UniProt O75030); assay: reducers of TRPM1 reporter luminescence, concentration series – cell-based, SK-MEL-5, cherry-picked, set 3, MITF inhibitor project, dose response (AID 493073); type: functional;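 further: SK-MEL-5 melanoma cells with luciferase driven by the MITF target TRPM1 promoter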
T7 sequence (O75030 whole entry): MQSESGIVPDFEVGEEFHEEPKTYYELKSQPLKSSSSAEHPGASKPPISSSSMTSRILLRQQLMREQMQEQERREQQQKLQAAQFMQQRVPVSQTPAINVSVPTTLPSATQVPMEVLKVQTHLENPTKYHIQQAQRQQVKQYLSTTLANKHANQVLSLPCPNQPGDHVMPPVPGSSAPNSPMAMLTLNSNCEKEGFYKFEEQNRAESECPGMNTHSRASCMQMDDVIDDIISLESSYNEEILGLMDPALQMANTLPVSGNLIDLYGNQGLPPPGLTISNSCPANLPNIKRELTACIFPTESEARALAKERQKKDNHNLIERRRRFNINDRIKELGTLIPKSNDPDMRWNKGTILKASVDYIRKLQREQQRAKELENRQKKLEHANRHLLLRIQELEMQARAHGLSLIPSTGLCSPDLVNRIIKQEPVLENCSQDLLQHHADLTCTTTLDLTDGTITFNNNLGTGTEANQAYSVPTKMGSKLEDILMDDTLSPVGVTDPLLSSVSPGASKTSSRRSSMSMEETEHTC

[24] = biological target: X-box-binding protein 1 (Homo sapiens, UniProt P17861); type: functional, Cricetulus griseus;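 further: confirmatory dose-response counter-screen serving a CHOP assay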
Chain of X-box-binding protein 1 (P17861 whole entry): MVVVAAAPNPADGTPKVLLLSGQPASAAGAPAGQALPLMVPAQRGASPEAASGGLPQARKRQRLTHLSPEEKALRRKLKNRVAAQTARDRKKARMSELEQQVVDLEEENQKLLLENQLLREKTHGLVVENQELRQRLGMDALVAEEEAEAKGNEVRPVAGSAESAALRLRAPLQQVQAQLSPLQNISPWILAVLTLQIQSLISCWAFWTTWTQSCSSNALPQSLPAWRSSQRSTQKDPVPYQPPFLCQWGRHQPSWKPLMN

[25] = system: HeLa; assay: viability loss in HeLa cells – cell-based, 24 h, cherry-picked samples, cytotoxicity control, dose response (AID 504726); type: functional; conditions: Homo sapiens;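 further: potency for cytotoxicity as loss of luminescence signal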
[26] = biological target: T8, Eukaryotic translation initiation factor 2-alpha kinase 3 (Homo sapiens, UniProt Q9NZJ5); assay: Dose response cell-based high-throughput screening assay to measure PERK inhibition. [Related pubchem assays: 1416 ]; type: functional
T8 sequence (Q9NZJ5 whole entry): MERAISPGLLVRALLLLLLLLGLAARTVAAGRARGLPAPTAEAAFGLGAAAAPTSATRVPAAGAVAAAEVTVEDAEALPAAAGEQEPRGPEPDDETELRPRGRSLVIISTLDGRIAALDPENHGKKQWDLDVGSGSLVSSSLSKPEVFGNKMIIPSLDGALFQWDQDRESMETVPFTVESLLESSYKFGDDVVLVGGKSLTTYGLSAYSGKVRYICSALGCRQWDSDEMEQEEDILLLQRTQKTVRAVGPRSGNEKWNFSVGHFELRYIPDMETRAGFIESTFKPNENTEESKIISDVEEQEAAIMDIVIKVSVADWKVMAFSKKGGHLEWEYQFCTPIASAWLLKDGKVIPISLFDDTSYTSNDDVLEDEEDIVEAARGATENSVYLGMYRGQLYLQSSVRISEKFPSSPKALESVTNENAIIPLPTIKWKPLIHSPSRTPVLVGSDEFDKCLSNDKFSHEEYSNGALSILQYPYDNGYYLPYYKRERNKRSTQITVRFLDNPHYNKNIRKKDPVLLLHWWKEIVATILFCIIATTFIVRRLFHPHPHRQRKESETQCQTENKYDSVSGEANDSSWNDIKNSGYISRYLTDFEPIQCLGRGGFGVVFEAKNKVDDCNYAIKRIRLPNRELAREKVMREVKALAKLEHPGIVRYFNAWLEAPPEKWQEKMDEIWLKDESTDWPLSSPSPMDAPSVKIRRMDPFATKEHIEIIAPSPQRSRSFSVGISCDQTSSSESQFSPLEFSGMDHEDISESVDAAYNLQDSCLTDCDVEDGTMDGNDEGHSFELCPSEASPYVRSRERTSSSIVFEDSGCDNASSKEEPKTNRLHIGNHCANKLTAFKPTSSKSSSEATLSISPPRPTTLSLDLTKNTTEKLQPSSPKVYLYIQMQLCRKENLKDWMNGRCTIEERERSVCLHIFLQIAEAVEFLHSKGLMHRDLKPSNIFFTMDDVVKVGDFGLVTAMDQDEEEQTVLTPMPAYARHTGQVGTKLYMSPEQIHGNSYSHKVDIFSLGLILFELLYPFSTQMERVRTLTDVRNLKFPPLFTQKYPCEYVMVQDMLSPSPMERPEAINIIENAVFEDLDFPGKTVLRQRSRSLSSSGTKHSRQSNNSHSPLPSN

[27] = biological target: T8, Eukaryotic translation initiation factor 2-alpha kinase 3; assay: Counterscreen assay for PERK inhibitors: Dose response cell-based high throughput screening assay to measure inhibition of PERK at 6 hours. [Related pubchem assays: 1522, 1416 ]; type: functional

Chain of Bcl-2-like protein 10 (Q9HD36 whole entry): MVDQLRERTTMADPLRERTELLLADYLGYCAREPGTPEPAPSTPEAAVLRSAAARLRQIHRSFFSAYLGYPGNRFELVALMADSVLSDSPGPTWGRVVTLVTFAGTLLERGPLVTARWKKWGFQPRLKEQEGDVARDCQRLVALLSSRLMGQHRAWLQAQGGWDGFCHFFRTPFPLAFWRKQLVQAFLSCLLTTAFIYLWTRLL

For COc1ccc2c(c1)c(=O)oc1cc(OCC(=O)NC3CCCCC3)ccc12, the IC50 [1] was 34.6 µM (active), the IC50 [2] was 17.9 µM (active) and the IC50 [3] was 7.51 µM (active). For the same compound, the IC50 [4] was > 50 µM (not active) and the IC50 [5] was 6.74 µM (active).

For O=[N+]([O-])c1cc(-c2ncccn2)c([N+](=O)[O-])s1, the IC50 [6] was 8.96 µM (active), the IC50 [7] was 6.92 µM (active) and the CC50 [8] was 23.2 µM (active). For the same compound, the IC50 [9] was 7.48 µM (active), the IC50 [10] was 24 µM (inactive) and the IC50 [11] was > 66.6 µM (inactive). For the same compound, the EC50 [12] was 6.64 µM (active).

With Cc1nc(SCC(=O)Nc2ccc3c(c2)OCCO3)c2oc3ccccc3c2n1 the EC50 [13] was > 50 µM (not active).

With Cc1cccc(C)c1NC(=O)C[N+](C)(C)CC(O)COc1cccc2ccccc12 (configuration not stated) the CC50 [14] was 22 µM (active).

With CC1CCN(c2nc3ccc(C(=O)O)cc3s2)CC1 the EC50 [15] was 7.86 µM (active), the EC50 [16] was 12.5 µM (not active) and the EC50 [17] was > 8 µM (not active). For the same compound, the EC50 [18] was 0.268 µM (active), the EC50 [19] was > 50 µM (not active) and the EC50 [20] was 13.1 µM (inactive). For the same compound, the IC50 [21] was 1.82 µM (active), the IC50 [22] was > 80 µM (inactive) and the AC50 [23] was 1.25 µM (active).

For Cc1cccc(/C=C/c2nc(O)c3ccccc3n2)c1, the “Absolute IC50 (XBP1)” value [24] was 10 µM.

In the case of COc1cccc(NC(=O)N(CCN(C)C)C(C)c2cccnc2)c1 (configuration not stated), the AC50 [25] is reported as 123 µM (active).

In the case of O=C(N/N=C/c1ccncc1)c1ccccc1, the EC50 [26] is reported as > 55.7 µM (not active) and the EC50 [27] is reported as > 55.7 µM (not active).
